Experimental data reported in PMC7763995 (Molecules, 2020).

What was measured:
Equine serum BChE [1] = target: T1, Equine serum BChE (Equus caballus, UniProt P81908); assay: biochemical
T1 construct: equine serum BChE; purchased Sigma-Aldrich; host or cells: equine serum
Protocol: (§1) Measurements were performed with a FLUOStar Optima microplate reader (BMG Labtech, Ortenberg, Germany). Compounds were dissolved in DMSO, the incubation mixture contained 2% solvent.

Human erythrocyte AChE [2] = target: T2, Human erythrocyte AChE (Homo sapiens, UniProt P22303); assay: biochemical; settings: mean ± SEM, n = 3; n.a. = not active; read-out: Human Erythrocyte AChE, IC50
T2 construct: AChE from human erythrocytes was used; purchased Sigma-Aldrich; host or cells: human erythrocytes
Protocol: as §1

Porcine liver CES = assay: In vitro CES inhibition, 4-NPA substrate; format: biochemical; settings: compound concentration 20 µM; n.a. = not active
Protocol: as §1

EeAChE PAS = target: T3, EeAChE PAS (Electrophorus electricus, UniProt O42275); format: binding; settings: compound concentration 20 µM
T3 construct: Electric eel AChE (EeAChE, type VI-S, lyophilized powder); purchased Sigma-Aldrich type VI-S; host or cells: electric eel
Protocol: Electric eel AChE (EeAChE, type VI-S, lyophilized powder, Sigma-Aldrich, Saint Louis, MO, USA) was used owing to its high degree of purification, high activity, and lower cost compared to human AChE.
The blank contained propidium iodide of the same concentration in 1 mM Tris-HCl buffer pH 8.0. The measurements were carried out in triplicate on a FLUOStar Optima microplate reader, and the results were calculated by formula (1):% Displacement = 100 − (IFAChE+ Propidium + inhibitor / IFAChE + Propidium) × 100(1) where IFAChE + Propidium is the fluorescence intensity of the propidium associated with AChE in the absence of the test compound (taken as 100%), and IFAChE + Propidium + inhibitor is the fluorescence intensity of the propidium associated with AChE in the presence of the test compound.

Human erythrocyte AChE [3] = target: T2, Human erythrocyte AChE; assay: Kinetic study of AChE inhibition, steady-state inhibition constants; format: biochemical
Protocol: (§2) Mechanisms of human erythrocyte AChE and equine serum BChE inhibition were assessed via a thorough analysis of enzyme kinetics. Residual activity was measured following 5 min incubation at 25°C (for temperature equilibration) with three increasing concentrations of inhibitor and six decreasing substrate concentrations. Substrate was added immediately after the 5 min incubation with inhibitor and the rates of absorption were monitored at 412 nm using a FLUOStar OPTIMA microplate reader.

Equine serum BChE [4] = target: T1, Equine serum BChE; assay: Kinetic study of BChE inhibition, steady-state inhibition constants; format: biochemical
Protocol: as §2

[5] = ABTS radical cation scavenging activity assay; settings: 1 h incubation
Protocol: Radical scavenging activity of the compounds was assessed using the ABTS radical decolorization assay with some modifications. ABTS was purchased from Tokyo Chemical Industry Co., Ltd. (Tokyo, Japan), potassium persulfate (dipotassium peroxodisulfate), Trolox (6-hydroxy-2,5,7,8-tetramethychroman-2-carboxylic acid), and HPLC-grade ethanol were obtained from Sigma-Aldrich. Aqueous solutions were prepared using deionized water.
The solution of cation radical ABTS^•+ was produced by incubation of ABTS with potassium persulfate in deionized water for 12–16 h at room temperature in the dark. Radical scavenging capacity of the compounds was analyzed by mixing 10 μL of compound with 240 μL of ABTS^•+ working solution in ethanol (100 μM final concentration). The reaction was monitored for an hour with an interval of 5–10 min. Data are given for 1 h of incubation of compounds with ABTS^•+. The reduction in absorbance was measured spectrophotometrically at 734 nm using a xMark microplate UV/VIS microplate spectrophotometer (Bio-Rad, Hercules, CA, USA).
Ethanol blanks were run in each assay. Values were obtained from three replicates of each sample and three independent experiments. Standard antioxidants Trolox and BHT were used as reference compounds.
Antioxidant capacity as Trolox equivalent (TEAC) values was determined as the ratio between the slopes obtained from the linear correlation of the ABTS radical absorbance with the concentrations of tested compounds and Trolox. […] The compounds were tested in the concentration range of 0.1–100 µM.

[6] = FRAP (ferric reducing antioxidant power) assay; settings: 20 µM, 1 h incubation; ratio of concentrations of Trolox and test compound with same effect
Protocol: The FRAP (ferric reducing antioxidant power) assay proposed by Benzie and Strain [80, 81] was modified to be performed in 96-well microplates. The FRAP reagent contained 2.5 mL of 10 mM TPTZ (2,4,6-tris(2-pyridyl)-s-triazine (Sigma-Aldrich) solution in 40 mM HCl, 2.5 mL of 20 mM FeCl3 (Sigma-Aldrich) in distilled water and 25 mL of 0.3 M acetate buffer (pH 3.6). In 96-well microplates, 10 µL aliquots of the substance under investigation (compounds 7, 8 or reference substance) dissolved in DMSO (0.5 mM) were placed in quadruplicate. The FRAP reagent (240 µL) freshly prepared and warmed to 37°C was added to three of these samples, while the same volume of acetate buffer was added to the fourth one (blank). Consequently, the concentration of the substance in a plate was 20 µM. The absorbance at 600 nm was monitored spectrophotometrically with a FLUOStar OPTIMA microplate reader at 37°C for an hour with an interval of 5–10 min. Data in Table 2 are given for 1 h of incubation of compounds with FRAP reagent. The absorbances of the blanks and those of the mixture of 240 µL FRAP reagent plus 10 µL DMSO were subtracted from the absorbances of the samples at each time interval to calculate the absorbance change. Standard antioxidants Trolox and BHT dissolved in DMSO and analyzed as described above were used as reference compounds. A calibration curve with linear formula y = 0.03x (R^2 = 0.998, p < 0.0001) was obtained for Trolox solution in DMSO in the range 2.5–100 µM and the results were expressed as FRAP units (the values calculated as the ratio of the concentrations of Trolox and the test compound resulting in the same effect.)

T2 sequence (P22303 32-617 isoform P22303-2 limits assumed): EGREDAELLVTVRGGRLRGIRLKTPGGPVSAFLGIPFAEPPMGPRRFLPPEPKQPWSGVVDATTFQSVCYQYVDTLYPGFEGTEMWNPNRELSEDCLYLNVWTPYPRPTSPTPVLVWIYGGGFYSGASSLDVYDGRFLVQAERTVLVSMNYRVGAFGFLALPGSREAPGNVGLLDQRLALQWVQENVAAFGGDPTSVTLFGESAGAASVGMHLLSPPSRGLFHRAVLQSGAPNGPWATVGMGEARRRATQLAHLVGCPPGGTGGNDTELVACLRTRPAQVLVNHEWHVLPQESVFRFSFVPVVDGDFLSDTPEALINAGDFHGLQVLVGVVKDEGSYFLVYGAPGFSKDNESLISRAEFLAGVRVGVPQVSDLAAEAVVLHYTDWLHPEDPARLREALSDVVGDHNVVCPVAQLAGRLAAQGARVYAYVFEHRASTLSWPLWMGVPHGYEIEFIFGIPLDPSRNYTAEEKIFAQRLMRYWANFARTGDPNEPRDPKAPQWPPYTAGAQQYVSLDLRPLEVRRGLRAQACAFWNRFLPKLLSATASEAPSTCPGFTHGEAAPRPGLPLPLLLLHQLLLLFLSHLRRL
T1 sequence (P81908 whole entry): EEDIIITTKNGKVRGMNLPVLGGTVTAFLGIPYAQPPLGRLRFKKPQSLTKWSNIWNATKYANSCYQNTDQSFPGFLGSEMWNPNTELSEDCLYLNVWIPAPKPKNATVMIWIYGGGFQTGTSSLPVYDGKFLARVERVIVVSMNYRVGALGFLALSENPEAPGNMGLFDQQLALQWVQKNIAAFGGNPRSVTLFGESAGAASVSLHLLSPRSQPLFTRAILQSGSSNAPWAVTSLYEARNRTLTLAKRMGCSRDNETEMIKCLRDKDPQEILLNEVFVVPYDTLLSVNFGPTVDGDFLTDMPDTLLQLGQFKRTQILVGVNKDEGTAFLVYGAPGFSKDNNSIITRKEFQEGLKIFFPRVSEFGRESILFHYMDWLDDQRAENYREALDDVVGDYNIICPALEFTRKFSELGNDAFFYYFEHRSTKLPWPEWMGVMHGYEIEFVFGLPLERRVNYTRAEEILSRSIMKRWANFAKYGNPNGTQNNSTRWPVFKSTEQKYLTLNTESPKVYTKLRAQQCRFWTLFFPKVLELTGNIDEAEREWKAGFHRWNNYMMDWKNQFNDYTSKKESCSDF
T3 sequence (O42275 24-633): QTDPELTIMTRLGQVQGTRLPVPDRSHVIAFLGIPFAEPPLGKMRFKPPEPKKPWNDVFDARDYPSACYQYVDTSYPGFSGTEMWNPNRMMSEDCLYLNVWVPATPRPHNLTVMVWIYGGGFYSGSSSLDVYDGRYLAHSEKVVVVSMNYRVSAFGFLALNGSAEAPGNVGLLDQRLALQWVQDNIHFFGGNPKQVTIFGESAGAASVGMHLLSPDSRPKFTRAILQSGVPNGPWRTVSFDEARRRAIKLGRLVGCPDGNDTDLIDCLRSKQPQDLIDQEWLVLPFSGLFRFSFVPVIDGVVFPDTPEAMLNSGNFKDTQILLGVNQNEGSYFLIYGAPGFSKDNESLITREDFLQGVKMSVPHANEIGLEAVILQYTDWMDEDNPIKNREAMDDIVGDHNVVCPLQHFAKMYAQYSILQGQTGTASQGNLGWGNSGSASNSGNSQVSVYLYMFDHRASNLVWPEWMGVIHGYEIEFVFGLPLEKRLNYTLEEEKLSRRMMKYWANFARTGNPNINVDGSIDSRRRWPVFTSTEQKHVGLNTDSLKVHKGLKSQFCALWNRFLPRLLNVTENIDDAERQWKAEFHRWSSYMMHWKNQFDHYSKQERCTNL

CC(C)(C)c1cc(C=NCCNc2c3c(nc4ccccc24)CCCCC3)cc(C(C)(C)C)c1O [Compound 7c, 2,6-Di-tert-butyl-4-{[2-(7,8,9,10-tetrahydro-6H-cyclohepta[b]quinolin-11-ylamino)-ethylimino]-methyl}-phenol]
Selectivity for BChE (Equine serum BChE [1]; IC50 AChE / IC50 BChE): 9.6
IC50 (Equine serum BChE [1]; mean ± SEM, n = 3, n.a. = not active, read-out: Equine Serum BChE, IC50): 0.419 ± 0.04 µM
IC50 (Human erythrocyte AChE [2]): 4.03 ± 0.03 µM
Porcine Liver CES, (%) inhibition (Porcine liver CES): 30.1 ± 2.5%
Displacement of Propidium from EeAChE PAS (%) (EeAChE PAS): 16.3 ± 1.3%
αKi (noncompetitive component), AChE (Human erythrocyte AChE [3]; Lineweaver-Burk plots): 4.30 ± 0.02 µM
Ki (Human erythrocyte AChE [3]; Lineweaver-Burk plots, read-out: Ki (competitive component), AChE): 1.58 ± 0.1 µM
Mechanism of AChE inhibition (Human erythrocyte AChE [3]; changes in both Km and Vmax): mixed type of reversible inhibition
αKi (noncompetitive component), BChE (Equine serum BChE [4]; Lineweaver-Burk plots): 0.437 ± 0.010 µM
Ki (Equine serum BChE [4]; Lineweaver-Burk plots, read-out: Ki (competitive component), BChE): 0.164 ± 0.005 µM
Mechanism of BChE inhibition (Equine serum BChE [4]; changes in both Km and Vmax): mixed type of reversible inhibition
IC50 [5]: 17.8 ± 1.6 µM
ABTS^•+-Scavenging Activity, TEAC ([5]; ratio of slopes test compound/Trolox): 1.11 ± 0.04
Ferric Reducing Antioxidant Power, FRAP Units [6]: 0.52 ± 0.04
